Assay results published in patent US10016417B2, “Extended release formulation of a direct thrombin inhibitor” (Diakron Pharmaceuticals Inc., priority 2011, dated 2018).

Assays:
[1] = target: T1, thrombin (Homo sapiens, UniProt P00734); experiment: Multiple once-daily dosing study: ECT; assay type: in vivo; parameters: a prothrombin-thrombin intermediate which retains the full molecular weight of prothrombin; from tissue; host or cells: blood plasma of dosed subjects; settings: at maximum levels, from regression analyses
Source text: ECT is prolonged in a specific and linear fashion with increasing concentrations of hirudin.

[2] = target: T1, thrombin; experiment: Single dose crossover study: activated partial thromboplastin time (aPTT); assay type: in vivo; parameters: from tissue; host or cells: blood plasma of dosed subjects; settings: 24 hrs post-dose
Experimental: (§1) As used herein, the term “activated partial thromboplastin time (aPTT)” is the period required for clot formation in recalcified blood plasma after contact activation and the addition of platelet substitutes. This measure is used to address the intrinsic and common pathways of coagulation.
(§2) Four formulations having same composition as those described in Example 1 were dosed in a clinical study. […] (reported as the international normalized ratio [INR]); (i.e. PD parameters) and (3) assess the safety of DPOC-4088 in healthy volunteers.
(§3) Twelve subjects aged 21 to 45 (mean 32.9±8.55) years were enrolled, and were dosed in 4 periods after an overnight fast and had blood drawn for PK/PD determinations immediately prior to dosing and at specified time intervals for 48 hrs post-dosing. Each dosing period was separated by a ≥5-day washout. The observed PK and PD parameters are tabulated as Table 12.

[3] = Single dose crossover study: safety; assay type: in vivo, human
Experimental: as §2
as §3, with “washout.” for “washout. The observed PK and PD parameters are tabulated as Table 12.”

[4] = target: T1, thrombin; experiment: Multiple once-daily dosing study: aPTT; assay type: in vivo; parameters: from tissue; host or cells: blood plasma of dosed subjects; settings: at maximum levels, from regression analyses
Source text: as §1
(§4) Randomized, double-blind, placebo-controlled, stepwise study of the pharmacokinetics (PK), pharmacodynamics (PD), PK/PD characteristics and safety of multiple once-daily oral dosing of DPOC-4088 in healthy young male subjects
Mean maximum and minimum fold changes compared to baseline (Day 1, pre dose) in ECT, aPTT and PT on Day 10 are shown in Table 15. […] Minimum changes in ECT and aPTT on Day 10 were 1.12 and 1.10 respectively (Table 16). These values are lower than the target values defined in the protocol which were 2 and 1.5, respectively, at steady-state trough levels (see below). • Linear regression on the changes in ECT and aPTT versus DPOC-4088 plasma levels was performed. […] For ECT the changes would be 2.4 and 3.1 fold respectively. • For reference, for dabigatran, clinically relevant doses result in changes in aPTT of approximately 1.50 fold at trough levels and 2-fold at maximum levels. For ECT these changes are approximately 2-fold at trough levels and 3-fold at maximum levels.

[5] = system: thrombin; experiment: Single dose crossover study: thrombin time (TT); assay type: in vivo, human; settings: by 48 hrs; returned to within
Experimental: As used herein, the term “thrombin time (TT)” is the time required for plasma fibrinogen to form […], measured as the time for clot formation after exogenous thrombin is added to citrated plasma.
as §2, §3

[6] = Multiple once-daily oral dosing study, Dose Step 1 100 mg q.d.: PK; assay type: in vivo, human; settings: assuming dose linearity from Day 10 PK data
Experimental: as §4
Preliminary Safety, PK, and PD Results Dose Step 1: 100 mg q.d.
Mean PK profiles of DPOC-4088 on Day 1 (first dose) and Day 10 (steady-state) are shown in FIGS. 14 a-b, respectively. • On Day 1, the mean PK profile was in line with observation from the previous single dose study (DPOC-001). • The degree of accumulation to steady-state levels was modest with a Day 10/Day 1 ratio for AUC24h of 1.4. […] Pharmacodynamics

[7] = Multiple once-daily dosing study: safety; assay type: in vivo, human
Source text: as §4
10 healthy volunteers participated in the first step of the multiple dose study (8 received DPOC-4088 and 2 received placebo). […] Minor AEs were reported. All AEs were grade 1, transient and were resolved. No bruising (except for puncture site hematomas) or petechiae were reported and the physical (including neurological) exams were normal in all volunteers. The lab exams were within normal limits or deviating without clinical significance.

[8] = target: T1, thrombin; experiment: Single dose crossover study: ecarin clotting time (ECT); assay type: in vivo; parameters: a prothrombin-thrombin intermediate which retains the full molecular weight of prothrombin; from tissue; host or cells: blood plasma of dosed subjects
Experimental: In the assay, a known quantity of ecarin is added to the plasma of a patient treated with hirudin.

[9] = target: T1, thrombin; experiment: Single dose crossover study: prothrombin time PT (INR); assay type: in vivo; parameters: from tissue; host or cells: blood plasma of dosed subjects
Experimental: As used herein, the term “prothrombin time (PT)” is the rate at which prothrombin is converted to thrombin in citrated blood with added calcium. This is used to assess the extrinsic coagulation system of the blood
as §2, §3

**Q.** For O=C(Cn1c(Cl)cnc(NCC(F)(F)c2ccccn2)c1=O)NCc1ncccc1F [DPOC-4088, 3-fluoro-2-pyridylmethyl-3-(2,2-difluoro-2-(2-pyridyl)ethylamino)-6-chloropyrazin-2-one-1-acetamide], which “ECT expected fold change from baseline” value ([1]; Day 10, 200 mg once daily) is on record?
**A.** Its value is 2.4 fold.

**Q.** What about the “ECT expected fold change from baseline” value ([1]; Day 10, 300 mg once daily) of the same compound?
**A.** Its value is 3.1 fold.

**Q.** And the “mean aPTT above the pre-dose aPTT” value ([2]; 100 mg)?
**A.** The value was 12-15%.

**Q.** And the “mean aPTT above the pre-dose aPTT” value ([2]; 200 mg)?
**A.** Its value is 21-24%.

**Q.** What about the safety and tolerability ([3]; 100 and 200 mg doses, both release formulations) of the same compound?
**A.** Its safety and tolerability is “safe and well-tolerated”.

**Q.** What about the “Adverse events (AEs), subjects” value ([3]; most grade 1, unrelated or unlikely related) of the same compound?
**A.** Its value is 9/12.

**Q.** And the “aPTT expected fold change from baseline” value ([4]; Day 10, 200 mg once daily)?
**A.** Its value is 1.8 fold.

**Q.** What about the “aPTT expected fold change from baseline” value ([4]; Day 10, 300 mg once daily) of the same compound?
**A.** Its value is 2.2 fold.

**Q.** And the “mean TT relative to pre-dosing TT” value [5]?
**A.** The value was 1-15%.

**Q.** What about the “expected maximum DPOC-4088 levels” value ([6]; daily dose 200 mg) of the same compound?
**A.** The value was about 2000 nM.

**Q.** And the “expected maximum DPOC-4088 levels” value ([6]; daily dose 300 mg)?
**A.** Its value is about 3000 nM.

**Q.** What about the safety conclusion ([7]; 100 mg level, after 10 days of oral administration) of the same compound?
**A.** The safety conclusion was “very safe”.

**Q.** And the “treatment emergent serious adverse events (AEs)” value ([7]; 100 mg q.d., 8 on DPOC-4088)?
**A.** The value was “No treatment emergent serious adverse events”.

**Q.** What about the “mean 24 hr ECT above the pre-dose ECT” value ([8]; 100 mg dose) of the same compound?
**A.** Its value is 21-23%.

**Q.** And the “mean 24 hr ECT above the pre-dose ECT” value ([8]; 200 mg dose)?
**A.** Its value is 35-36%.

**Q.** And the “mean peak INR” value ([9]; single dose 100 mg formulations)?
**A.** Its value is 1.15-1.17.

**Q.** And the “mean peak INR” value ([9]; single dose 200 mg formulations)?
**A.** The value was 1.28-1.30.

**Q.** And the “time at which mean peak INRs were reached” value ([9]; single doses of 100 or 200 mg)?
**A.** The value was 4 h.
